Experimental data as given in PMC8620715, “Biological Activity of Triazolopyrimidine Copper(II) Complexes Modulated by an Auxiliary N-N-Chelating Heterocycle Ligands” (Molecules, 2021).
Where two headings read alike, the source gives them in different places.

Experiments:
[1] = tested on: BJ normal cell line (human fibroblast cells); experiment: MTT cell viability assay, BJ normal cells; type: cell-based; conditions: for IC50 / reduction of BJ cell viability at the highest concentration: BJ
Description: (§1) Human fibroblast cells (BJ—ATCC CRL-2522, USA) were grown in minimal essential medium (MEM) supplemented with 2 mM L-Glutamine, 10% fetal calf serum (FCS), 100 units/mL of penicillin, and 100 µg/mL of streptomycin at 37 °C in a humidified incubator under an atmosphere containing 5% CO2. Mouse melanoma cells (B16—ATCC CRL—6475, USA) were grown in DMEM (Dulbecco’s Modified Eagle Medium) supplemented with similar reagents as MEM. All cell cultivation media and reagents were purchased from Biochrom AG (Berlin, Germany) and Sigma-Aldrich (Darmstadt, Germany).
(§2) Cell viability was evaluated using 3-(4,5-dimethylthiazol-2-yl)-2,5-diphenyltetrazolium bromide (MTT) assay as described previously. First, the cells were seeded in 96-well plates (20000 cells/well) and cultured for 24 h in medium. […] The negative control was represented by cells cultivated in a medium without the investigated compounds. Following incubation, the medium was changed, and the MTT solution was added to each well to a final concentration of 1 mg/mL and incubated for an additional 4 h, at 37 °C. Finally, the medium was collected, and DMSO was used to dissolve the insoluble formazan product. The absorbance of the samples was recorded at 570 nm using a plate reader Mithras 940 (Berthold). The data were corrected for the background, and the percentage of viable cells was obtained using the equation:Cell viability = [(A570 of treated cells)/(A570 of untreated cells)] × 100%(1)
(§3) The half-maximal inhibitory concentration (IC50) was determined by fitting the data with a sigmoidal logistical equation using the software Origin 8.1 (Microcal Inc., Los Angeles, CA, USA).

[2] = tested on: B16 murine melanoma cell line; experiment: MTT cell viability assay, B16 melanoma cells; type: cell-based, mouse; conditions: for TI (therapeutic index): BJ vs B16, where no toxicity at highest concentration, a value two times higher was used
Description: as §1, §2, §3

[3] = tested on: Saccharomyces cerevisiae; type: cell-based; conditions: for sensitivity of sod1Δ and sod2Δ to menadione: 0.1 mM, SC medium; for sensitivity of sod1Δ and sod2Δ to menadione / lysine auxotrophy of sod1Δ cells (growth in SC-Lys medium): 16 h; for lysine auxotrophy of sod1Δ cells (growth in SC-Lys medium): various concentrations; for growth of yeast cells (WT, sod1Δ, sod2Δ): concentrations up to 2 mM
Description: The Saccharomyces cerevisiae laboratory strain BY4741 (MATa; his3Δ1; leu2Δ0; met15Δ0; ura3Δ0) considered wild type (WT), and the isogenic strains sod1Δ and sod2Δ lacking the genes SOD1 (encoding Cu/Zn-superoxide dismutase) and SOD2 (encoding Mn-superoxide dismutase) were obtained from EUROSCARF (Frankfurt, Germany). Cells were maintained, manipulated and grown in a rich medium (YPD, 1% w/v yeast extract, 2% w/v peptone, 2% w/v glucose; 2% w/v agar was added for solid media) or on synthetic complete medium (SC, 0.67% w/v yeast nitrogen base without amino acids, 2% w/v glucose) supplemented with the necessary amino acids. Lysine drop-out medium (SC-Lys) was prepared similarly to SC, omitting lysine from the recipe. We added the complexes to autoclaved media from DMSO sterile stocks (10 mM). An overnight culture was 10^3-fold diluted in fresh medium and incubated (200 rpm, 30 °C) until the culture reached a density of 5 × 10^5 cells. The compounds were added to the desired concentrations, and culture growth was monitored at 660 nm in a 96-well multi-scanner plate reader equipped with a thermostat and shaker (Varioskan, Thermo Fischer Scientific, Vantaa, Finland). Three biological replicates were set for all determinations, and data were presented as average ± standard error (SE). The Saccharomyces cerevisiae laboratory strain BY4741 (MATa; his3Δ1; leu2Δ0; met15Δ0; ura3Δ0) considered wild type (WT), and the isogenic strains sod1Δ and sod2Δ lacking the genes SOD1 (encoding Cu/Zn-superoxide dismutase) and SOD2 (encoding Mn-superoxide dismutase) were purchased from EUROSCARF (Frankfurt, Germany). Cells were maintained and manipulated and grown in YPD medium (1% w/v yeast extract, 2% w/v peptone, 2% w/v glucose; 2% w/v agar was added for solid media). Complexes were added to autoclaved media from DMSO sterile stocks (10 mM). To determine the effect of compounds on yeast growth, a fresh overnight pre-culture was 10^3-fold diluted in YPD and incubated (200 rpm, 30 °C) until the culture reached a density of 5 × 10^5 cells/mL. The compounds were added at the desired concentrations, and cell proliferation was monitored at 660 nm in a 96-well multi-scanner auto reader plate reader equipped with a thermostat and shaker (Varioskan Thermo Fischer Scientific, Vantaa, Finland). All determinations were done on three biological replicates.

[4] = tested on: B16 cells; experiment: Cell morphology by fluorescence microscopy (phalloidin staining), B16 cells; type: cell-based, mouse; conditions: 24 h
Description: The morphological changes induced by the treatment of the BJ and B16 cell lines with the tested compounds at two different concentrations (2.5 and 10 µg/mL) applied for 24 h were investigated by fluorescence microscopy.
According to the manufacturer protocol, the cytoskeleton actin filaments of BJ and B16 cells were stained with phalloidin-FITC (Sigma-Aldrich, St. Louis, MO, USA). Briefly, cells were washed with PBS (5 min, 3 times), fixed for 5 min with 3% paraformaldehyde, washed three times with PBS, permeabilized with 0.1% Triton X-100 in PBS for 15 min, washed three times with PBS, stained with 20 μg/mL phalloidin-FITC at room temperature for 1 h and rewashed three times with PBS. The cell nucleus was stained with 8 μM of Hoechst 33342 solution for 10 min, washed three times with PBS, and finally, mounted and sealed on glass slides with FluorSave™ Reagent (Merck Millipore, Germany). The fluorescence images were acquired using an Andor DSD2 Confocal Unit (Andor, Ireland), mounted on an epifluorescence microscope, Olympus BX-51 (Olympus, Germany), equipped with a 40x and 100x objective and an appropriate DAPI/Hoechst filter cube (excitation filter 390/40 […], dichroic mirror 405 nm and emission filter 452/45 nm) and GFP/FITC filter cube (excitation filter 466/40 nm, dichroic mirror 488 nm and emission filter 525/54 nm).

[5] = 2.5 µg/mL (2.84 μM and 2.76 μM for the complexes)

| Structure (SMILES) | IC50 ([1]; 24 h) | reduction of BJ cell viability at the highest concentration ([1]; 24 h) | IC50 ([1]; 24 h, read-out: IC50) | IC50 ([1]; 48 h) | reduction of BJ cell viability at the highest concentration ([1]; 48 h) | IC50 ([1]; 48 h, read-out: IC50) | TI (therapeutic index) ([2]; 24 h) | TI (therapeutic index) ([2]; 48 h) | B16 cell viability decreased to ([2]; B16) | IC50 ([2]; B16, 24 h) | IC50 ([2]; B16, 24 h, read-out: IC50) | IC50 ([2]; B16, 48 h) | IC50 ([2]; B16, 48 h, read-out: IC50) | sensitivity of sod1Δ and sod2Δ to menadione [3] | lysine auxotrophy of sod1Δ cells (growth in SC-Lys medium) [3] | growth of yeast cells (WT, sod1Δ, sod2Δ) [3] | morphological changes of B16 cells [4, 5] | morphological changes of B16 cells ([4]; 10 μg/mL (11.05 µM)) | effect on viability of BJ cells ([1]; range of tested concentrations, 24 h and 48 h) | effect on viability of B16 cells ([2]; 24 h and 48 h) |
| --- | --- | --- | --- | --- | --- | --- | --- | --- | --- | --- | --- | --- | --- | --- | --- | --- | --- | --- | --- | --- |
| Cc1cc(C)n2ncnc2n1.Cc1cc(C)n2ncnc2n1.Cc1cc(C)n2ncnc2n1.O.[Cu+2].[O-][Cl+3]([O-])([O-])[O-].[O-][Cl+3]([O-])([O-])[O-].c1cnc2c(c1)ccc1cccnc12 [Complex (2), [Cu(phen)(dmtp)2(OH2)](ClO4)2·dmtp] | 13.61 µg/mL | up to 45% | 15 µM | 4.50 µg/mL | up to 10% | 4.97 µM | 1.98 | 1.08 | 5% | 6.88 µg/mL | 7.6 µM | 4.15 µg/mL | 4.58 µM | alleviated the sensitivity of sod1Δ and sod2Δ to menadione | improved the growth of sod1Δ mutants | not affected | not altered | significant changes |  |  |
| Cc1cc(C)n2ncnc2n1.Cc1cc(C)n2ncnc2n1.Cc1cc(C)n2ncnc2n1.O.[Cu+2].[O-][Cl+3]([O-])([O-])[O-].[O-][Cl+3]([O-])([O-])[O-].c1ccc(-c2ccccn2)nc1 [Complex (1), [Cu(bpy)(dmtp)2(OH2)](ClO4)2·dmtp] |  |  |  |  |  |  | 8.68 | 12.82 |  | 5.76 µg/mL | 6.5 µM | 3.90 µg/mL | 4.42 µM | alleviated the sensitivity of sod1Δ and sod2Δ to menadione | improved the growth of sod1Δ mutants | not affected | not altered |  | not affected | reduced the viability of B16 cells |
